Assay results from patent publication US20210002231A1 (Centre National de la Recherche Scientifique, priority 2018, published 2021).
Where two headings read alike, the source gives them in different places. Residues, ends and D or L forms follow the SMILES beside them.

Tests used:
GPR103 = target: T1, GPR103 (Homo sapiens, UniProt Q96P65); assay: Radioligand competition binding with [125I]-43RFa
T1 construct: expressed in transfected cells; host or cells: CHO cells (gift from M. Parmentier, IRIBHM, Brussels), membranes
T1 sequence (Q96P65 1-431): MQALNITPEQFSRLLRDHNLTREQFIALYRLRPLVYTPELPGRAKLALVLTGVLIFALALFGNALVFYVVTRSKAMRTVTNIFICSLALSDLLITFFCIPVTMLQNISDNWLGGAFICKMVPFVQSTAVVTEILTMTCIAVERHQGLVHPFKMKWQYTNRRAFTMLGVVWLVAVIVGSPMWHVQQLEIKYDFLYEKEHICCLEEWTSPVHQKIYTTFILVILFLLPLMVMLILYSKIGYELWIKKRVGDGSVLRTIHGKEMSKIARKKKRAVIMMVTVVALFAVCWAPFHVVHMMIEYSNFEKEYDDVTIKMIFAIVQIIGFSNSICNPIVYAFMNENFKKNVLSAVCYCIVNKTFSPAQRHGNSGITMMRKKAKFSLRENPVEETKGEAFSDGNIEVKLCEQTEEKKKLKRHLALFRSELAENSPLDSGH

C57BL/6N mice [1] = assay: Hyperalgesia and analgesic tolerance upon chronic sc. treatment, tail immersion test; type: in vivo; conditions: for basal thermal nociceptive threshold (development of hyperalgesia): chronic daily sc., compared with saline; for antinociceptive effect on day 1: equianalgesic sc. doses, 25 s cut-off
Method: (§1) Animal experiments were performed on adult male C57BL/6N male mice (25-30 g weight; Janvier labs, France). Animals were housed in groups of three to five per cage and kept under a 12 h/12 h light/dark cycle at 21±1° C. with ad libitum access to food and water. Experiments were performed during the light-on phase of the cycle. Mice were habituated to the testing room and equipment before starting behavioral experiments. Control and treated group assignment as well as pain response measurements were performed in a blinded manner. Every animal was used only once. 1.11. Drug administration All drugs were dissolved in physiological saline (0.9%) and administered subcutaneously (sc.) at 10 mL/kg (volume/body weight). […] Assessment of thermal nociception The nociceptive sensitivity to thermal stimulation was determined in mice using the warm-water tail immersion tests as previously described [12; 49]. In the tail immersion test, C57BN/6N mice were restrained in a grid pocket and their tail was immersed in a thermostated water bath. The latency (in sec) for tail withdrawal from hot water (47.5±0.5° C.) was taken as a measure of the nociceptive response. In the absence of any nociceptive reaction, a cut-off value of 25 sec was set to avoid tissue damage. Experiments for chronic drug effects were designed according to a protocol enabling the evaluation of time-course of opioid-induced hyperalgesia and development of analgesic tolerance using the tail immersion test. […] For analgesic tolerance evaluation, nociceptive latencies were measured on day 1 and 8 according to the acute effect protocol. For the assessment of hyperalgesia, basal nociceptive latencies were measured every day, 30 min before drug or saline injection. Responses are expressed as latency times (in sec) of tail withdrawal from the hot water.

human MOPr = human MOPr (Homo sapiens, UniProt P35372); assay: cell-based; type: cell-based; design: expressed in transfected cells; HEK293-Glo20F cells (cAMP); conditions: for Emax: read-out: MOPr (cAMP) Emax; for MOPr-induced G protein activation: in words;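 as to MOPr (cAMP) Emax: Emax relative to DAMGO as 100%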
In short: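 GTPγS binding used membranes of CHO cells expressing NPFF1R or NPFF2R, stimulated by RF-amide peptides or test compounds. cAMP was measured in HEK293 cells stably carrying Glosensor-20F, with or without stable expression of an opioid receptor or NPFF1R, in the presence of 1 mM D-luciferin.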

human NOPr [2] = target: T2, human NOPr (Homo sapiens, UniProt P41146); assay: Radioligand competition binding with [3H]-nociceptin
T2 construct: expressed in transfected cells

human NPFF1R = human NPFF1R (Homo sapiens, UniProt Q9GZQ6); assay: Radioligand competition binding with [125I]-1-DMe-NPFF; design: expressed in transfected cells; HEK293-Glo20F cells (cAMP)
NPFF2R = NPFF2R (Homo sapiens, UniProt Q9Y5X5); assay: as above; design: expressed in transfected cells; HEK293-Glo20F cells (cAMP)
C57BL/6N mice [3] = assay: Respiratory depression by whole body plethysmography; type: in vivo; conditions: acute sc.; KGOP01 1.8, KGFF03 1.2, KGFF09 7.4 μmol/kg; 100 min
Method: Ventilatory parameters were recorded in conscious C57BL/6N mice by whole body barometric plethysmography (Emka Technologies, Paris, France). Mice were acclimatized with the plethysmograph chamber for 30 min until a stable baseline was obtained. Then, the animal was gently removed from the chamber for sc. injection of the tested drug at TO and replaced in the chamber for the remaining measurements. Respiratory frequency (f) was recorded for 100 min and used as the index of respiratory depression.

human KOPr = target: T3, human KOPr (Homo sapiens, UniProt P41145); assay: biochemical; type: binding; conditions: [3H]-diprenorphine
T3 construct: expressed in transfected cells; HEK293-Glo20F cells (cAMP)

C57BL/6N mice [4] = assay: Tail immersion test after acute sc. administration; type: in vivo
Method: as §1, with “bath.” for “bath. The latency (in sec) for tail withdrawal from hot water (47.5±0.5° C.) was taken as a measure of the nociceptive response. In the absence of any nociceptive reaction, a cut-off value of 25 sec was set to avoid tissue damage. Experiments for chronic drug effects were designed according to a protocol enabling the evaluation of time-course of opioid-induced hyperalgesia and development of analgesic tolerance using the tail immersion test.”

human NOPr [5] = target: T2, human NOPr; assay: Glo-sensor cAMP assay; type: cell-based
Method: Stimulation by endogenous RF-amide peptides or test compounds for [^35S]-GTPγS binding to membranes from CHO cells expressing human NPFF1R or NPFF2R, were examined as reported. 1.6. Glo-Sensor cAMP Assay cAMP accumulation assay was essentially done as described with the following modifications: HEK293 cells stably expressing cAMP Glosensor-20F were used, with or without additional stable expression of each individual opioid receptor or NPFF1R. The cAMP responses were measured in presence of D-luciferin (1 mM).

C57BL/6N mice [6] = assay: Naltrexone-precipitated withdrawal syndrome; type: in vivo; conditions: twice daily sc. for 7 days, KGFF09 7.4 μmol/kg; in comparison to the other compounds
Method: On day 7, two hours after the last drug injection, the withdrawal syndrome was precipitated by administration of naltrexone (5 mg/kg, sc.) and evaluated over 30 min. Jumping, paw tremors and wet dog shakes were recorded as number of events occurring during the total test time. Diarrhea was checked for 30 min with one point given for any signs of it during each 5 min period (maximum score: 6). Body weight was measured immediately before and after each 30 min test session, and percentage of body weight lost during the test was calculated. For each mouse, a global opiate withdrawal score was also calculated by summing the values obtained for each sign. For this purpose one point was assigned to every 3 jumps and 5 paw tremors, respectively, whereas all other signs were given the absolute values recorded during the test.

[7] = [125I]-43RFa, read-out: Ki ± SEM GPR103
[8] = Table 3a, HEK293-Glo20F-hMOPr cells, read-out: MOPr (cAMP) EC50

human MOPr, sequence (P35372 whole entry): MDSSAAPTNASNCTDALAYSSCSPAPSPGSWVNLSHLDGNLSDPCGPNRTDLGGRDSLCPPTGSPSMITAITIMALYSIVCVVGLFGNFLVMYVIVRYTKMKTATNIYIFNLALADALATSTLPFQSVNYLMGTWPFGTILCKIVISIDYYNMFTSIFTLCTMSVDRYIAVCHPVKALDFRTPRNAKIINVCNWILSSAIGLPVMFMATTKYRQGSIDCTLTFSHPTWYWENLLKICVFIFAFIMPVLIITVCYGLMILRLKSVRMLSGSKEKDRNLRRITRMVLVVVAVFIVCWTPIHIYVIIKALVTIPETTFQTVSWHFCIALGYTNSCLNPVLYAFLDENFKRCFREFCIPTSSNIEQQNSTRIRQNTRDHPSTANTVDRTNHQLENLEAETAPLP
T2 sequence (P41146 whole entry): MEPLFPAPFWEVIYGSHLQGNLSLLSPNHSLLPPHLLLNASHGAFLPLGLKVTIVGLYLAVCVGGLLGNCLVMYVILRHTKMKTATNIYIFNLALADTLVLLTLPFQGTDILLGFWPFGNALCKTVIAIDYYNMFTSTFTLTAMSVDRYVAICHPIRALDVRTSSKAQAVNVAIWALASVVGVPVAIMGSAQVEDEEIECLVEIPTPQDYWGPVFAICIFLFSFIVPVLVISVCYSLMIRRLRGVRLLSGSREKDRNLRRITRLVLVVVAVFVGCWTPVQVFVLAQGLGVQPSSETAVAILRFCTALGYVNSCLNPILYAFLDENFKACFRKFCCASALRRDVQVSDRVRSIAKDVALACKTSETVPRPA
T3 sequence (P41145 whole entry): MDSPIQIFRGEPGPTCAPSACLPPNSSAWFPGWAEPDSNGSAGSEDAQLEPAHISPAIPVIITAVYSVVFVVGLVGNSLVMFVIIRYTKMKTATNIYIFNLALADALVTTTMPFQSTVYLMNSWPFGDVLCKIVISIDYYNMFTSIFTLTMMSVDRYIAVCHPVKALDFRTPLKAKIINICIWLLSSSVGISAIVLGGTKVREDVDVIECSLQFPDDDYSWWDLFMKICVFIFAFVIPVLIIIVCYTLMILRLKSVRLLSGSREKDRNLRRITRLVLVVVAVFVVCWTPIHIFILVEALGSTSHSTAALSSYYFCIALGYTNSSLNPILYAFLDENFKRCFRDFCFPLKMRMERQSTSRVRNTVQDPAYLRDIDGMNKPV
human NPFF1R, sequence (Q9GZQ6 whole entry): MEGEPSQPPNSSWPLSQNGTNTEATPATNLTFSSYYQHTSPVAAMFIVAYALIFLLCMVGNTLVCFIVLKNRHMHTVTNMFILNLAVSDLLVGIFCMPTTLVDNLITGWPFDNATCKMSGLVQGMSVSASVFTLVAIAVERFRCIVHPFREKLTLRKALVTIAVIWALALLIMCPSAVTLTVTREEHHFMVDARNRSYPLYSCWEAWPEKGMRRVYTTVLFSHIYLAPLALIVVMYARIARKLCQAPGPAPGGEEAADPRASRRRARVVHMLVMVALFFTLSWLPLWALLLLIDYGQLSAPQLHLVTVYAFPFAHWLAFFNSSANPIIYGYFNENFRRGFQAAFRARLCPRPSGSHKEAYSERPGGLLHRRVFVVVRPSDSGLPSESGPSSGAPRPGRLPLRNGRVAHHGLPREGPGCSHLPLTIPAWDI
NPFF2R, sequence (Q9Y5X5 whole entry): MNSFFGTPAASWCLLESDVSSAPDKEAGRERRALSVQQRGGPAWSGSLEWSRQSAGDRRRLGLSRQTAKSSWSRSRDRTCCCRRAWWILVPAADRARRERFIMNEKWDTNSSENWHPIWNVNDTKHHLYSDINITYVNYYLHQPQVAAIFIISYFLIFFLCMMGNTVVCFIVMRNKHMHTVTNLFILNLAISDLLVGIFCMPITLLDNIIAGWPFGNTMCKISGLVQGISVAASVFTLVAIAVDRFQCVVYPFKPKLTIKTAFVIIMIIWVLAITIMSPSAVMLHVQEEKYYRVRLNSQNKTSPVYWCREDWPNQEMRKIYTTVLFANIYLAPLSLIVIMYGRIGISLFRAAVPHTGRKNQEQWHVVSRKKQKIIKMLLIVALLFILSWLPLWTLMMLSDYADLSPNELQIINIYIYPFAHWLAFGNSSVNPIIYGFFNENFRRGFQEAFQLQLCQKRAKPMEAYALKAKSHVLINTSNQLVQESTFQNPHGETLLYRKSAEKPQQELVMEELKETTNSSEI

SMILES	Ki (GPR103; [7]) [µM]	basal thermal nociceptive threshold (development of hyperalgesia) (C57BL/6N mice [1])	antinociceptive effect on day 1 (C57BL/6N mice [1])	Emax (human MOPr) [%]	Ki (human NOPr [2]) [nM]	respiratory depression (respiratory frequency) compared to saline (C57BL/6N mice [3])	Ki (human KOPr) [nM]	potency in inducing antinociception compared to KGOP01 (C57BL/6N mice [4])	EC50 (human MOPr; [8]) [nM]	MOPr-induced G protein activation (human MOPr)	Emax (human NOPr [5]) [%]	further results
Cc1cc(O)cc(C)c1C[C@H](N)C(=O)N[C@H](CCCNC(=N)N)C(=O)N[C@H]1Cc2ccccc2CN(CCC(N)=O)C1=O [KGOP01, reference compound]	> 10	significant and progressive decrease	full antinociception	89 ± 2	> 10000	significant respiratory depression	37.3 ± 9.6					EC50 (human MOPr; MOPr (cAMP) EC50): 0.204 ± 0.05 nM; Ki (human NPFF1R): 4.6 µM; Ki (NPFF2R): 4.5 µM
Cc1cc(O)cc(C)c1C[C@H](N)C(=O)N[C@H](CCCNC(=N)N)C(=O)N[C@H]1Cc2ccccc2CN(CCC(=O)N[C@@H](CCCNC(=N)N)C(=O)N[C@@H](Cc2ccccc2)C(N)=O)C1=O [KGFF03, H-Dmt-D-Arg-Aba-β-Ala-Arg-Phe-NH2] (HELM PEPTIDE1{[Cc1cc(O)cc(C)c1C[C@H](N)C(=O)[*:2]].[dR].[O=C1[C@@H](N[*:1])Cc2ccccc2CN1CCC(=O)[*:2]].R.F.[am]}$$$$V2.0)			full antinociception	92 ± 1	289 ± 3	did not	108 ± 28	equipotent	12 ± 2	highly potent and fully efficacious	15 ± 2	Ki (GPR103): > 10 µM; Kb (human NOPr [5]): 5.01 µM
Cc1cc(O)cc(C)c1C[C@H](N)C(=O)N[C@H](CCCNC(=N)N)C(=O)N[C@H]1Cc2ccccc2CN(CCC(=O)N[C@@H](CCCN2CCC(Cc3ccccc3)CC2)C(=O)N[C@@H](Cc2ccccc2)C(N)=O)C1=O [KGFF09, H-Dmt-D-Arg-Aba-β-Ala-Bpa-Phe-NH2]	1.2	absent	full antinociception	85 ± 2	209 ± 2	did not		4.5 fold less potent	18.2 ± 6.1	highly potent and fully efficacious	7 ± 3	decrease in antinociception efficacy (AUC) on day 8 compared to day 1 (C57BL/6N mice [1]; daily sc. d1-d8, KGOP01 1.8, KGFF03 1.2, KGFF09 7.4 μmol/kg/d): less than 25%; EC50 (human MOPr; Table 3B, read-out: MOPr (cAMP) EC50): 18.2 ± 6.1 nM; global opiate withdrawal score, reduced to (C57BL/6N mice [6]): circa 50%; EC50 (human NOPr [5]): > 10 µM; Kb (human NOPr [5]; read-out: pA2, antagonist activity at the NOPr (converted)): 1.15 µM
